SMILES strings stand for the structures.

This note sets out measurements from patent publication US5089623A, “Certain imidate insecticides” (Imperial Chemical Industries Plc, priority 1990, dated 1992).

Type in all cases: in vivo
Assay [1] deals with Housefly [Musca domestica]. The assay can be described thus: Housefly insecticidal test (HF). As to conditions: per 25 female houseflies, 48 hours.
In assay [2] the test system is Tobacco Budworm [Heliothis virescens (Fabricius)] eggs. Put plainly: Tobacco budworm egg test (TBW-E). As to conditions: percent in solution.
Assay [3] concerns Cabbage Looper [Trichoplusia ni (Hubner)]. The assay can be described thus: Cabbage looper test (CL). As to conditions: second-instar larvae, 3-5 days, percent in solution.
Assay [4] relates to Aster Leafhopper [Macrosteles fascifrens (Stal)]. The assay can be described thus: Aster leafhopper test (LH). To be noted: adults/nymphs, 48 hours, percent in solution.
Assay [5] concerns Maize weevil [Sitophilus Zeamais (Motschulsky)]. Put plainly: Maize weevil test (MW). As to conditions: adult weevils, treated corn seeds, 48 hours, percent in solution. An outline of the steps:
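Adult weevils (10) were placed with four corn seeds that had been dipped 2-3 s in compound dissolved in 50:50 acetone:water, then dried, and held at about 25° C. Mortality was scored at 48 h. LC50 was taken from dosage-mortality curves and expressed as percent compound in solution, from a 0.01% top concentration.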

`CC(C)C(=Nc1ccc2c(c1)OCO2)OCc1ccnc(Oc2ccccc2)c1` [Compound 540]: in assay [1], the “LC50 HF” value was over 100 µg. For the same molecule, in assay [2], the “LC50 TBW E” value is reported as over 0.1%. The “LC50 CL” value in assay [3] is under 0.1%. In assay [4], the “LC50 LH” value is over 0.05%. In addition, the “LC50 MW” value in assay [5] is reported as over 0.01%.
Take `CC(C)C(=Nc1ccccc1Cl)OCc1cccc(Oc2ccccc2)c1` [Compound 17]: the “LC50 HF” value in assay [1] was determined as 75 µg. Moreover, the “LC50 TBW E” value in assay [2] is given as over 0.1%. For the same molecule, the “LC50 CL” value in assay [3] is 0.03%. For the same molecule, the “LC50 LH” value in assay [4] is given as over 0.05%. Moreover, the “LC50 MW” value in assay [5] is recorded as over 0.01%.
As for `Cc1ccc(N=C(OCc2ccc(F)c(Oc3ccccc3)c2)C(C)C)cc1F` [Compound 354], the “LC50 HF” value in assay [1] was under 100 µg. Moreover, in assay [2], the “LC50 TBW E” value is 0.018%. Further, the “LC50 CL” value in assay [3] is recorded as over 0.1%. Further, the “LC50 LH” value in assay [4] is under 0.05%. For the same molecule, the “LC50 MW” value in assay [5] came out at 0.0068%.
The matching figures for `CC(C)C(=Nc1ccc(F)c(Cl)c1)OCc1cc(Oc2ccc(F)cc2)ccn1` [Compound 529]: 27.7 µg, over 0.1%, over 0.0025%, over 0.05% and over 0.01%.
As to `C=C(C)C(=Nc1ccc(Cl)cc1)OCc1cccc(Oc2ccccc2)c1` [Compound 6], the “LC50 HF” value in assay [1] was 17 µg. Also, in assay [2], the “LC50 TBW E” value was 0.015%. Also, in assay [3], the “LC50 CL” value came out at 0.02%. The “LC50 LH” value in assay [4] is listed as over 0.05%. In assay [5], the “LC50 MW” value is over 0.01%.
The matching figures for `c1ccc(Oc2cccc(COC(=Nc3ccc4c(c3)OCO4)C3CC3)c2)cc1` [Compound 177]: 13 µg, over 0.1%, 0.002%, over 0.05% and 0.01%.
Consider `COC(=O)c1ccc(N=C(OCc2cccc(Oc3ccccc3)c2)C(C)C)cc1` [Compound 151], for which the “LC50 HF” value in assay [1] was 38 µg. For the same molecule, in assay [2], the “LC50 TBW E” value is on record as over 0.1%. Moreover, the “LC50 CL” value in assay [3] amounted to 0.009%. The “LC50 LH” value in assay [4] is on record as over 0.05%. Further, the “LC50 MW” value in assay [5] was over 0.01%.
The matching figures for `CC(C)C(=Nc1ccc(F)c(Cl)c1)OCc1ccc(OCc2ccccc2)cc1` [Compound 475]: over 100 µg, over 0.1%, 0.008%, over 0.05% and over 0.01%.
The matching figures for `CC(C)C(=Nc1ccc2c(c1)OCO2)OCc1cccc(Oc2ccc(Cl)cc2)c1` [Compound 240]: 14 µg, 0.04%, 0.0003%, over 0.05% and over 0.01%.
On the same counts, the results for `COc1ccc(N=C(OCc2ccc(F)c(Oc3ccc(F)cc3)c2)C(C)C)cc1OC` [Compound 363] are under 100 µg, over 0.1%, over 0.1%, over 0.05% and over 0.01%.
As for `CC(C)C(=Nc1ccc(C#N)cc1)OCc1cccc(Oc2ccccc2)c1` [Compound 172], the “LC50 HF” value in assay [1] worked out at 5 µg. The “LC50 TBW E” value in assay [2] worked out at 0.04%. For the same molecule, the “LC50 CL” value in assay [3] was 0.002%. The “LC50 LH” value in assay [4] is reported as over 0.05%. In addition, in assay [5], the “LC50 MW” value is given as over 0.01%.
On the same counts, the results for `CCC(=Nc1ccc2c(c1)OCO2)OCc1cccc(Oc2ccccc2)c1` [Compound 178] are 6 µg, over 0.1%, 0.004%, over 0.05% and over 0.01%.
On the same counts, the results for `CC1(C)C(C(=Nc2ccc(F)c(Cl)c2)OCc2cccc(Oc3ccccc3)c2)C1(C)C` [Compound 124] are 17 µg, over 0.1%, 0.01%, over 0.05% and over 0.01%.
Regarding `N#CC(=Nc1ccc(Cl)cc1)OCc1cccc(Oc2ccccc2)c1` [Compound 21], in assay [1], the “LC50 HF” value worked out at 7 µg. The “LC50 TBW E” value in assay [2] is given as over 0.1%. For the same molecule, the “LC50 CL” value in assay [3] was 0.02%. The “LC50 LH” value in assay [4] is reported as over 0.05%. The “LC50 MW” value in assay [5] is over 0.01%.
On the same counts, the results for `C#CC(OC(=Nc1ccc(F)c(Cl)c1)C(C)C)c1cccc(Oc2ccccc2)c1` (stereo not shown) [Compound 533, N-(3-chloro-4-fluorophenyl)-O-[1-(3-phenoxyphenyl)-2-propyn-1-yl]isobutyrimidate] are 60 µg, over 0.1%, over 0.1%, over 0.05% and over 0.01%.
On the same counts, the results for `CC(C)C(=Nc1ccc(F)c(Cl)c1)OCC#CCOc1ccccc1` [Compound 534] are over 100 µg, over 0.1%, under 0.1%, over 0.05% and over 0.01%.
Consider `CCc1ccc(N=C(OCc2ccc(F)c(Oc3ccccc3)c2)C(C)C)cc1` [Compound 360], for which the “LC50 HF” value in assay [1] is under 100 µg. For the same molecule, in assay [2], the “LC50 TBW E” value is on record as over 0.1%. The “LC50 CL” value in assay [3] was 0.006%. Moreover, the “LC50 LH” value in assay [4] is under 0.05%. The “LC50 MW” value in assay [5] is on record as over 0.01%.
With `CC(C)C(=Nc1ccc(OC(F)(F)F)cc1)OCc1cccc(Cc2ccccc2)c1` [Compound 542], the “LC50 HF” value in assay [1] is over 100 µg. In addition, in assay [2], the “LC50 TBW E” value was over 0.1%. Also, the “LC50 CL” value in assay [3] is recorded as over 0.01%. Also, the “LC50 LH” value in assay [4] is given as over 0.05%. In addition, in assay [5], the “LC50 MW” value was over 0.01%.
Take `CC(C)C(=Nc1cccc(C(F)(F)F)c1)OCc1ccnc(Oc2ccc(Cl)cc2)c1` [Compound 517]: in assay [1], the “LC50 HF” value is 80 µg. Further, the “LC50 TBW E” value in assay [2] turned out to be 0.04%. Further, the “LC50 CL” value in assay [3] came out at 0.0008%. Also, the “LC50 LH” value in assay [4] is recorded as over 0.05%. For the same molecule, the “LC50 MW” value in assay [5] was over 0.01%.
On the same counts, the results for `CC(C)C(=Nc1ccc(F)cc1)OCc1cccc(Oc2ccc(Br)cc2)c1` [Compound 259] are 15 µg, 0.05%, 0.0003%, over 0.05% and over 0.01%.
The matching figures for `CC(C)C(=Nc1cccc(I)c1)OCc1cccc(Oc2ccc(F)cc2)c1` [Compound 255]: 16 µg, 0.075%, 0.00017%, 0.0005% and over 0.01%.
On the same counts, the results for `CC(C)C(=Nc1ccc(F)c(Cl)c1)OCc1cccc(Cc2ccccc2)c1` [Compound 541] are under 100 µg, over 0.1%, 0.001%, over 0.05% and over 0.01%.
Turning to `CSc1ccc(N=C(OCc2ccc(F)c(Oc3ccccc3)c2)C(C)C)cc1` [Compound 353], the “LC50 HF” value in assay [1] was under 100 µg. Moreover, the “LC50 TBW E” value in assay [2] is over 0.1%. Moreover, the “LC50 CL” value in assay [3] is recorded as over 0.1%. The “LC50 LH” value in assay [4] is reported as over 0.05%. Also, the “LC50 MW” value in assay [5] is given as over 0.01%.
